Values of other authors, collected in US20240108682A1, “COMPOSITIONS AND METHODS FOR INCREASING GLUTATHIONE LEVELS” (Lile Method Research, LLC, priority 2022, published 2024).

Details: Lu SC, Curr Top Cell Regul 36:95-116 (2000)

N[C@@H](CCC(=O)N[C@@H](CS)C(=O)NCC(=O)O)C(=O)O [glutathione, L-γ-glutamyl-L-cysteinylglycine]
half-life of glutathione in the blood: seconds to minutes
